Source: patent publication US20260256812A1, “COMPOSITION COMPRISING A COMBINATION OF A CORTICOSTEROID AND A FLAVONOID FOR USE IN TREATING EYE-RELATED DISEASES” (priority 2023, published 2026)

Columns and labels:
ARPE-19 cells [1] = assay: Cytotoxicity evaluation by acid phosphatase assay (APA); type: cell-based, human
Description: ARPE-19 (adult retinal pigment epithelium-19) cell line was cultured using cell culture media containing a 1:1 mixture of DMEM and F-12 nutrient mixture. The media was supplemented with 10% FBS and 1% penicillin-streptomycin antibiotic mixture. During the culture, cells were maintained at 37° C. with 5% CO2 in a humidified incubator and sub-cultured with trypsin upon confluency.
Cytotoxicity evaluation of the drugs, both individually and in combination, was performed using the acid phosphatase assay (APA). The cytotoxicity assay was performed on TA and QCN from 5 to 250 μM and 1 to 250 μM, respectively. After investigating individual drugs, drug combinations were tested as outlined in Table 1.
Initially ARPE-19 cells were seeded onto a 96-well plate at a seeding density of 5000 cells/well containing 100 μL of cell culture media and cultured for 24 hr. After 24 hr, treatments were added to the wells and incubated for the period of the study (24 h and 48 hr). After the treatment period, media was removed, and cells were washed twice with PBS. Upon washing, 100 μL of 10 mM PNPP substrate dissolved in 0.1 M sodium acetate buffer was added to the wells and incubated for 2 hr. Finally, 50 μL of stop solution (1 M sodium hydroxide) was added and the plate was analysed in the plate reader at 405 nm.

[2] = system: intracellular ROS in ARPE-19 cells; assay: DCFH-DA intracellular ROS assay by flow cytometry; type: cell-based, human
Description: ARPE-19 cells were seeded onto 6-well plates at a seeding density of 25×10^4 cells/well and incubated for 24 hr. At the 24 hr time point cells were stimulated with stimulants to induce oxidative stress. […] Upon incubation with dye, cells were detached using trypsin and resuspended in PBS for analysis using flow cytometry.
Upon stimulation and treatment, the intracellular ROS levels were measured using flow cytometry to assess the anti-oxidant effect of the treatments. The oxidation of DCFH-DA to 2′-7′dichlorofluorescein (DCF) was used for the detection of intracellular ROS levels including nitrogen dioxide and hydroxyl radicals. The cells will take up the DCFH-DA dye where cellular esterase cleaves off the acetyl groups, resulting in the formation of DCFH (2′,7′-dichlorodihydrofluorescein). Oxidation of DCFH in the presence of intracellular ROS leads to the formation of DCF. This DCF fluorescent molecule can be detected using a flow cytometer by mean fluorescence intensity (MFI).

IL-6 = IL-6 ELISA on ARPE-19 cell supernatants; type: cell-based, human
Description: The human IL-6, IL-8, MCP-1, and VEGF-C ELISA kits were used according to the manufacturer's protocol to investigate the cytokine secretions in the cell supernatants. Cells were seeded onto a 24-well plate at a seeding density of 3×10^4 cells/well with 500 μL of cell culture media and cultured for 24 hr. Cells were kept overnight in low serum media (with 1% FBS) to synchronise their growth phase before stimulating inflammation. […] Upon stimulation, cells were exposed to various treatments of drugs alone and in combination for 24 hr. After the treatment duration media conditioned by treated cells were collected and analysed for the cytokines and VEGF-C secretions using the ELISA kits. ELISA was performed according to the manufacturer's protocol.

VEGF-C = assay: Anti-VEGF activity, VEGF-C ELISA on LPS-stimulated ARPE-19 cells; type: cell-based, human
Description: The human IL-6, IL-8, MCP-1, and VEGF-C ELISA kits were used according to the manufacturer's protocol to investigate the cytokine secretions in the cell supernatants. Cells were seeded onto a 24-well plate at a seeding density of 3×10^4 cells/well with 500 μL of cell culture media and cultured for 24 hr. Cells were kept overnight in low serum media (with 1% FBS) to synchronise their growth phase before stimulating inflammation. After 24 hr cells were stimulated with 10 μg/mL LPS to induce inflammation for a duration of 24 hr. Upon stimulation, cells were exposed to various treatments of drugs alone and in combination for 24 hr. After the treatment duration media conditioned by treated cells were collected and analysed for the cytokines and VEGF-C secretions using the ELISA kits. ELISA was performed according to the manufacturer's protocol.

DPPH antioxidant assay = assay: DPPH antioxidant assay
Description: The DPPH assay was performed in a 96-well plate where 20 μL of methanolic DPPH solution was added to 180 μL of methanolic solutions of treatments. Based on the outcome from anti-inflammatory studies, the higher concentrations of TA and QCN, both individually and in combination were investigated for antioxidant activity (TA 75, 100 μM and QCN 15, 20 μM). This reaction mixture was incubated for 30 min in darkness at room temperature and the absorbance was measured at 517 nm using a microplate reader.

ARPE-19 cells [3] = assay: Scratch (wound healing, cell migration) assay; type: cell-based, human; settings: QCN 20 μM; TA 100 μM; TA 100+QCN 20 μM; 1% FBS
Description: For the scratch or wound healing assay cells were seeded onto six-well plates with a seeding density of 25×10^4 cells/well. Upon reaching 80-90% confluency, a sterile 200 μL pipette tip was used to scrape the confluent monolayer of cells in a horizontal line. After creating the scratch, cell debris was washed with PBS and the cell culture media containing treatments was added to each well. The scratch was photographed using an Olympus EP50 microscope at 10× magnification at 0, 6, 9, 24, 27 and 30 h. “Image J” software was used to analyse the width of the scratch.
The major cause of irreversible vision loss is the exudative form of AMD, which is characterized by CNV where the newly formed blood vessels protrude from the choroid to the retina through Bruch's membrane. Even though the mechanism of CNV is not fully understood, some pathological studies point to the connection between CNV and sub-RPE deposits. Additionally, focal inflammation leads to focal thinning and damage of Bruch's membrane in patients of AMD. RPE cells are essential for the maintenance of photoreceptor cells as they provide nutrients. But the contact between RPE and photoreceptor cells was disrupted due to the accumulation of sub-RPE deposits and the interference of branched blood vessels. […] Upon seeding 25×10^4 cells/well and reaching around 90% confluency, the wounds were created and measured using image ‘J’ software. […]

[4] = TA 10 to 250 μM, 24 hr and 48 hr
[5] = 10 μg/mL LPS 24 hr, then 24 hr treatment

With OO [H2O2, hydrogen peroxide] the “cell viability with stimulant” value (ARPE-19 cells [1]; H2O2 200 and 300 μM, up to 48 h) was “decrease in cell viability” and the “MFI of stimulated stained cells” value ([2]; HP at 300 μM, unstimulated stained printed as 3.73±0.29, P value <0.05) was 2.01±0.10.
With CC1(C)O[C@@H]2C[C@H]3[C@@H]4CCC5=CC(=O)C=C[C@]5(C)[C@@]4(F)[C@@H](O)C[C@]3(C)[C@]2(C(=O)CO)O1 [TA, triamcinolone acetonide] the cell morphology (ARPE-19 cells [1]; [4]) was “no changes in cell morphology”, the viability of cells (ARPE-19 cells [1]; [4]) was “not affected” and the “concentration showing maximum inhibition of IL-6 expression” value (IL-6; [5]) was 100 µM.
In the case of lipopolysaccharide [LPS], the cytotoxicity of stimulant (ARPE-19 cells [1]; LPS 0.5 to 100 μg/mL, up to 48 h) is reported as “non-toxic” and the “IL-6 cytokine on stimulation” value (IL-6; LPS stimulation from 10 to 50 μg/mL) is reported as “consistently increased”.
For O=c1c(O)c(-c2ccc(O)c(O)c2)oc2cc(O)cc(O)c12 [QCN, quercetin], the cell viability (ARPE-19 cells [1]; QCN 1 to 20 μM) was “more than 90%”, the “effect on cells at higher concentrations” value (ARPE-19 cells [1]; QCN above 25 μM, up to 250 μM) was “toxic effects” and the cell viability (ARPE-19 cells [1]; QCN concentration up to 25 μM, 24 hr and 48 hr) was “more than 80%”. The “IL-6 expression compared to LPS stimulated cells” value (IL-6; [5]) was “decreased”, the “concentration showing maximum inhibition of IL-6 expression” value (IL-6; [5]) was 20 µM and the VEGF-C concentration (VEGF-C; QCN 20 μM, control LPS stimulated 1.96±2.05) was 0.83 ± 0.02 µg/mL. The “expression of VEGF-C compared to LPS stimulated cells” value (VEGF-C; TA 75, 100 μM, QCN 15, 20 μM, individually and in combination) was “better suppression”, the “inhibition of DPPH” value (DPPH antioxidant assay; QCN 20 μM) was 66.71±0.61% and the “anti-oxidant effect on DPPH free radical” value (DPPH antioxidant assay; TA 75, 100 μM, QCN 15, 20 μM, 30 min) was “strong anti-oxidant effect”. The “generated ROS (MFI) compared to control stimulated stained cells” value ([2]; 300 μM H2O2, TA 75, 100 μM, QCN 15, 20 μM, individually and in combination, 24 hr) was “significantly suppressed” and the “migration of the cells” value (ARPE-19 cells [3]) was “enhanced the migration”.
